According to US12077503B2, “Substituted cyclic amides and their use as herbicides” (FMC CORPORATION, priority 2015, dated 2024):

Experiments:
Type in all cases: in vivo
[1] = tested on: barnyardgrass (Echinochloa crus-galli); assay: Test G Pre-Emergence Protocol; conditions: Echinochloa crus-galli, pre-emergence, 312 h, evaluated after 13 days; for pest or weed control at 15.625 g/ha: 15.625 g ai/ha; for pest or weed control at 15.625 g/ha / pest or weed control at 250 g/ha: read-out: Barnyardgrass damage rating (100=total damage to plant; 0=no damage to plant); for pest or weed control at 62.5 g/ha: 62.5 g ai/ha, 100=total damage to plant, 0=no damage to plant, read-out: Barnyardgrass damage rating; for pest or weed control at 250 g/ha: 250 g ai/ha
Summary of the method: (§1)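 Scores are visual damage ratings from 0 (no damage) to 100 (total plant kill), taken 13 days after treatment. Compound was sprayed one day post-sowing at 15.625, 62.5 or 250 g/ha in 50:50 acetone/water with 0.5% Tween 20.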

[2] = tested on: corn (Zea mays); assay: Test G Pre-Emergence Protocol; conditions: Zea mays, pre-emergence, 312 h, evaluated after 13 days; for plant injury at 15.625 g/ha: 15.625 g ai/ha; for plant injury at 15.625 g/ha / plant injury at 250 g/ha: read-out: Corn damage rating (100=total damage to plant; 0=no damage to plant); for plant injury at 62.5 g/ha: 62.5 g ai/ha, 100=total damage to plant, 0=no damage to plant, read-out: Corn damage rating; for plant injury at 250 g/ha: 250 g ai/ha
Summary of the method: as §1

[3] = tested on: giant foxtail (Setaria faberi); assay: Test G Pre-Emergence Protocol; conditions: Setaria faberi, pre-emergence, 312 h, evaluated after 13 days; for pest or weed control at 15.625 g/ha: 15.625 g ai/ha; for pest or weed control at 15.625 g/ha / pest or weed control at 250 g/ha: read-out: Foxtail, Giant damage rating (100=total damage to plant; 0=no damage to plant); for pest or weed control at 62.5 g/ha: 62.5 g ai/ha, 100=total damage to plant, 0=no damage to plant, read-out: Foxtail, Giant damage rating; for pest or weed control at 250 g/ha: 250 g ai/ha
Summary of the method: as §1

[4] = tested on: ivy-leaved morning glory (Ipomoea hederacea); assay: Test G Pre-Emergence Protocol; conditions: Ipomoea, pre-emergence, 312 h, evaluated after 13 days; for pest or weed control at 15.625 g/ha: 15.625 g ai/ha; for pest or weed control at 15.625 g/ha / pest or weed control at 250 g/ha: read-out: Morningglory, Ivy-leaved damage rating (100=total damage to plant; 0=no damage to plant); for pest or weed control at 62.5 g/ha: 62.5 g ai/ha, 100=total damage to plant, 0=no damage to plant, read-out: Morningglory, Ivy-leaved damage rating; for pest or weed control at 250 g/ha: 250 g ai/ha
Summary of the method: as §1

[5] = tested on: redroot pigweed (Amaranthus retroflexus); assay: Test G Pre-Emergence Protocol; conditions: Amaranthus retroflexus, pre-emergence, 312 h, evaluated after 13 days; for pest or weed control at 15.625 g/ha: 15.625 g ai/ha; for pest or weed control at 15.625 g/ha / pest or weed control at 250 g/ha: read-out: Pigweed, Redroot damage rating (100=total damage to plant; 0=no damage to plant); for pest or weed control at 62.5 g/ha: 62.5 g ai/ha, 100=total damage to plant, 0=no damage to plant, read-out: Pigweed, Redroot damage rating; for pest or weed control at 250 g/ha: 250 g ai/ha
Summary of the method: as §1

[6] = tested on: velvetleaf (Abutilon theophrasti); assay: Test G Pre-Emergence Protocol; conditions: Abutilon theophrasti, pre-emergence, 312 h, evaluated after 13 days; for pest or weed control at 15.625 g/ha: 15.625 g ai/ha; for pest or weed control at 15.625 g/ha / pest or weed control at 250 g/ha: read-out: Velvetleaf damage rating (100=total damage to plant; 0=no damage to plant); for pest or weed control at 62.5 g/ha: 62.5 g ai/ha, 100=total damage to plant, 0=no damage to plant, read-out: Velvetleaf damage rating; for pest or weed control at 250 g/ha: 250 g ai/ha
Summary of the method: as §1

[7] = tested on: barnyardgrass (Echinochloa crus-galli); assay: Test G Post-Emergence Protocol; conditions: Echinochloa crus-galli, post-emergence, 312 h, read-out: Barnyardgrass damage rating; for pest or weed control at 15.625 g/ha: 15.625 g ai/ha, evaluated after 13 days (100=total damage to plant; 0=no damage to plant); for pest or weed control at 62.5 g/ha: 62.5 g ai/ha; for pest or weed control at 62.5 g/ha / pest or weed control at 250 g/ha: evaluated after 13 days, 100=total damage to plant, 0=no damage to plant; for pest or weed control at 250 g/ha: 250 g ai/ha
Summary of the method: (§2)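 Scores run 0 (no damage) to 100 (total damage) and were taken 13 days after spraying. Plants had been raised in pots for 8 days under glasshouse control (24/16 °C, 14 h photoperiod, 65% humidity) and then treated at 15.625, 62.5 or 250 g/ha.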

[8] = tested on: corn (Zea mays); assay: Test G Post-Emergence Protocol; conditions: Zea mays, post-emergence, 312 h, read-out: Corn damage rating; for plant injury at 15.625 g/ha: 15.625 g ai/ha, evaluated after 13 days (100=total damage to plant; 0=no damage to plant); for plant injury at 62.5 g/ha: 62.5 g ai/ha; for plant injury at 62.5 g/ha / plant injury at 250 g/ha: evaluated after 13 days, 100=total damage to plant, 0=no damage to plant; for plant injury at 250 g/ha: 250 g ai/ha
Summary of the method: as §2

[9] = tested on: giant foxtail (Setaria faberi); assay: Test G Post-Emergence Protocol; conditions: Setaria faberi, post-emergence, 312 h, read-out: Foxtail, Giant damage rating; for pest or weed control at 15.625 g/ha: 15.625 g ai/ha, evaluated after 13 days (100=total damage to plant; 0=no damage to plant); for pest or weed control at 62.5 g/ha: 62.5 g ai/ha; for pest or weed control at 62.5 g/ha / pest or weed control at 250 g/ha: evaluated after 13 days, 100=total damage to plant, 0=no damage to plant; for pest or weed control at 250 g/ha: 250 g ai/ha
Summary of the method: as §2

[10] = tested on: ivy-leaved morning glory (Ipomoea hederacea); assay: Test G Post-Emergence Protocol; conditions: Ipomoea, post-emergence, 312 h, read-out: Morningglory, Ivy-leaved damage rating; for pest or weed control at 15.625 g/ha: 15.625 g ai/ha, evaluated after 13 days (100=total damage to plant; 0=no damage to plant); for pest or weed control at 62.5 g/ha: 62.5 g ai/ha; for pest or weed control at 62.5 g/ha / pest or weed control at 250 g/ha: evaluated after 13 days, 100=total damage to plant, 0=no damage to plant; for pest or weed control at 250 g/ha: 250 g ai/ha
Summary of the method: as §2

[11] = tested on: redroot pigweed (Amaranthus retroflexus); assay: Test G Post-Emergence Protocol; conditions: Amaranthus retroflexus, post-emergence, 312 h, read-out: Pigweed, Redroot damage rating; for pest or weed control at 15.625 g/ha: 15.625 g ai/ha, evaluated after 13 days (100=total damage to plant; 0=no damage to plant); for pest or weed control at 62.5 g/ha: 62.5 g ai/ha; for pest or weed control at 62.5 g/ha / pest or weed control at 250 g/ha: evaluated after 13 days, 100=total damage to plant, 0=no damage to plant; for pest or weed control at 250 g/ha: 250 g ai/ha
Summary of the method: as §2

[12] = tested on: velvetleaf (Abutilon theophrasti); assay: Test G Post-Emergence Protocol; conditions: Abutilon theophrasti, post-emergence, 312 h, read-out: Velvetleaf damage rating; for pest or weed control at 15.625 g/ha: 15.625 g ai/ha, evaluated after 13 days (100=total damage to plant; 0=no damage to plant); for pest or weed control at 62.5 g/ha: 62.5 g ai/ha; for pest or weed control at 62.5 g/ha / pest or weed control at 250 g/ha: evaluated after 13 days, 100=total damage to plant, 0=no damage to plant; for pest or weed control at 250 g/ha: 250 g ai/ha
Summary of the method: as §2

| Compound | pest or weed control at 15.625 g/ha [1] | pest or weed control at 62.5 g/ha [1] | pest or weed control at 250 g/ha [1] | plant injury at 15.625 g/ha [2] | plant injury at 62.5 g/ha [2] | plant injury at 250 g/ha [2] | pest or weed control at 15.625 g/ha [3] | pest or weed control at 62.5 g/ha [3] | pest or weed control at 250 g/ha [3] | pest or weed control at 15.625 g/ha [4] | pest or weed control at 62.5 g/ha [4] | pest or weed control at 250 g/ha [4] | pest or weed control at 15.625 g/ha [5] | pest or weed control at 62.5 g/ha [5] | pest or weed control at 250 g/ha [5] | pest or weed control at 15.625 g/ha [6] | pest or weed control at 62.5 g/ha [6] | pest or weed control at 250 g/ha [6] | pest or weed control at 15.625 g/ha [7] | pest or weed control at 62.5 g/ha [7] | further results |
| --- | --- | --- | --- | --- | --- | --- | --- | --- | --- | --- | --- | --- | --- | --- | --- | --- | --- | --- | --- | --- | --- |
| COCCOc1cccc([C@@H]2CN(C)C(=O)[C@H]2C(=O)Nc2cccc(F)c2C)c1 (racemic) [Compound 1765] | 20% | 50% | 60% | 0% | 0% | 20% | 50% | 70% | 90% | 0% | 0% | 0% | 0% | 0% | 0% | 0% | 0% | 0% | 0% | 30% | pest or weed control at 250 g/ha [7]: 70%; plant injury at 15.625 g/ha [8]: 0%; plant injury at 62.5 g/ha [8]: 10%; plant injury at 250 g/ha [8]: 10%; pest or weed control at 15.625 g/ha [9]: 10%; pest or weed control at 62.5 g/ha [9]: 60%; pest or weed control at 250 g/ha [9]: 70%; pest or weed control at 15.625 g/ha [10]: 0%; pest or weed control at 62.5 g/ha [10]: 0%; pest or weed control at 250 g/ha [10]: 20%; pest or weed control at 15.625 g/ha [11]: 0%; pest or weed control at 62.5 g/ha [11]: 0%; pest or weed control at 250 g/ha [11]: 0%; pest or weed control at 15.625 g/ha [12]: 0%; pest or weed control at 62.5 g/ha [12]: 0%; pest or weed control at 250 g/ha [12]: 0% |
| Cc1c(F)cccc1NC(=O)[C@@H]1C(=O)N(C)C[C@H]1c1cccc(C(C)(C)O)c1 (racemic) [Compound 1819] | 0% | 60% | 90% | 0% | 0% | 60% | 20% | 80% | 90% | 0% | 0% | 0% | 0% | 0% | 20% | 0% | 0% | 10% | 0% | 20% | pest or weed control at 250 g/ha [7]: 80%; plant injury at 15.625 g/ha [8]: 0%; plant injury at 62.5 g/ha [8]: 0%; plant injury at 250 g/ha [8]: 20%; pest or weed control at 15.625 g/ha [9]: 0%; pest or weed control at 62.5 g/ha [9]: 40%; pest or weed control at 250 g/ha [9]: 80%; pest or weed control at 15.625 g/ha [10]: 0%; pest or weed control at 62.5 g/ha [10]: 0%; pest or weed control at 250 g/ha [10]: 50%; pest or weed control at 15.625 g/ha [11]: 0%; pest or weed control at 62.5 g/ha [11]: 0%; pest or weed control at 250 g/ha [11]: 10%; pest or weed control at 15.625 g/ha [12]: 0%; pest or weed control at 62.5 g/ha [12]: 0%; pest or weed control at 250 g/ha [12]: 0% |
